Tests used:
[1] = tested on: Human immunodeficiency virus 1; assay: In vitro antiviral activity against HIV1 subtype C clinical isolate 97ZA009; assay type: functional, organism-based; conditions: Human immunodeficiency virus 1, 97ZA009
[2] = tested on: Human immunodeficiency virus 1; assay: Ratio of EC50 for antiviral activity against fully replicating HIV1 harboring Gag A364V mutant by multicycle assay to EC50 for antiviral activity against fully replicating wild type HIV1 NLRepRluc-P373S by multicycle assay; assay type: functional
[3] = tested on: Human immunodeficiency virus 1; assay: Ratio of EC50 for antiviral activity against fully replicating pseudotype HIV1 harboring to Gag T332S/[…]/prR41G mutant by single cycle assay to EC50 for antiviral activity against fully replicating wild type pseudotype HIV1 NLRepRluc-P373S by single cycle assay; assay type: functional
[4] = tested on: Human immunodeficiency virus 1; assay: Ratio of EC50 for antiviral activity against fully replicating HIV1 harboring Gag V370A/deltaV371 by multicycle assay to EC50 for antiviral activity against fully replicating wild type HIV1 NLRepRluc-P373S by multicycle assay; assay type: functional
[5] = Oral bioavailability in Cynomolgus monkey at 5 mg/kg; assay type: ADME, organism-based, Macaca fascicularis; conditions: in vivo
[6] = Elimination half life in rat at 5 mg/kg, po; assay type: ADME, organism-based; conditions: in vivo, read-out: beta t1/2 (converted)
[7] = tested on: Human immunodeficiency virus 1; assay: Ratio of EC50 for antiviral activity against fully replicating pseudotype HIV1 harboring Gag V3621/V370A mutant by single cycle assay to EC50 for antiviral activity against fully replicating wild type pseudotype HIV1 NLRepRluc-P373S by single cycle assay; assay type: functional
[8] = AUC (infinity) in dog at 2 mg/kg, iv; assay type: ADME, organism-based, Canis lupus familiaris; conditions: in vivo
[9] = Volume of distribution at steady state in dog at 2 mg/kg, iv; assay type: ADME, organism-based, Canis lupus familiaris; conditions: in vivo, read-out: Vdss
[10] = Metabolic stability in Cynomolgus monkey liver microsomes assessed as half life; assay type: ADME, Macaca fascicularis, Microsome
[11] = tested on: Human immunodeficiency virus 1; assay: In vitro antiviral activity against fully replicating pseudotype HIV1 harboring Gag V370A mutant assessed as maximum percent inhibition by single cycle assay relative to control; assay type: functional
[12] = tested on: Human immunodeficiency virus 1; assay: In vitro antiviral activity against fully replicating HIV1 harboring Gag A364V mutant assessed as maximum percent inhibition by multicycle assay relative to control; assay type: functional
[13] = tested on: Human immunodeficiency virus 1; assay: Ratio of EC50 for antiviral activity against fully replicating pseudotype HIV1 harboring Gag A364V mutant by single cycle assay to EC50 for antiviral activity against fully replicating wild type pseudotype HIV1 NLRepRluc-P373S by single cycle assay; assay type: functional
[14] = tested on: Human immunodeficiency virus 1; assay: In vitro antiviral activity against fully replicating HIV1 harboring Gag V370A/deltaV371 mutant assessed as maximum percent inhibition by multicycle assay relative to control; assay type: functional
[15] = tested on: Human immunodeficiency virus 1; assay: Ratio of EC50 for antiviral activity against fully replicating HIV1 harboring Gag V3621/V370A mutant by multicycle assay to EC50 for antiviral activity against fully replicating wild type HIV1 NLRepRluc-P373S by multicycle assay; assay type: functional
Cytochrome P450 2C19 = Cytochrome P450 2C19 (Homo sapiens, UniProt P33261); assay: Inhibition of CYP2C19 (unknown origin); assay type: ADME
[16] = tested on: Human immunodeficiency virus 1; assay: In vitro antiviral activity against fully replicating pseudotype HIV1 harboring Gag V370A mutant by single cycle assay; assay type: functional, organism-based
[17] = tested on: Human immunodeficiency virus 1; assay: In vitro antiviral activity against fully replicating HIV1 harboring Gag deltaV370 mutant assessed as maximum percent inhibition by multicycle assay relative to control; assay type: functional
[18] = AUC (infinity) in mouse at 1 mg/kg, iv; assay type: ADME, organism-based; conditions: in vivo
[19] = tested on: Human immunodeficiency virus 1; assay: In vitro antiviral activity against fully replicating HIV1 harboring Gag A364V mutant by multicycle assay; assay type: functional, organism-based
[20] = tested on: Human immunodeficiency virus 1; assay: In vitro antiviral activity against fully replicating HIV1 harboring Gag […]/V370A mutant assessed as maximum percent inhibition by multicycle assay relative to control; assay type: functional
[21] = Clearance in Cynomolgus monkey at 2 mg/kg, iv; assay type: ADME, organism-based, Macaca fascicularis; conditions: in vivo
[22] = Elimination half life in mouse at 5 mg/kg, po; assay type: ADME, organism-based; conditions: in vivo, read-out: beta t1/2 (converted)
[23] = tested on: Human immunodeficiency virus 1; assay: Ratio of EC50 for antiviral activity against fully replicating pseudotype HIV1 harboring Gag V370A mutant by single cycle assay to EC50 for antiviral activity against fully replicating wild type pseudotype HIV1 NLRepRluc-P373S by single cycle assay; assay type: functional
[24] = tested on: Human immunodeficiency virus 1; assay: In vitro antiviral activity against fully replicating HIV1 harboring Gag V370A mutant by multicycle assay; assay type: functional, organism-based
[25] = tested on: Human immunodeficiency virus 1; assay: In vitro antiviral activity against fully replicating wild type pseudotype HIV1 NLRepRluc-P373S by single cycle assay; assay type: functional, organism-based
[26] = Volume of distribution at steady state in Cynomolgus monkey at 2 mg/kg, iv; assay type: ADME, organism-based, Macaca fascicularis; conditions: in vivo, read-out: Vdss
[27] = tested on: Human immunodeficiency virus 1; assay: In vitro antiviral activity against fully replicating pseudotype HIV1 harboring Gag A364V mutant by single cycle assay; assay type: functional, organism-based
[28] = tested on: Human immunodeficiency virus 1; assay: Ratio of EC50 for antiviral activity against fully replicating pseudotype HIV1 harboring Gag deltaV370 mutant by single cycle assay to EC50 for antiviral activity against fully replicating wild type pseudotype HIV1 NLRepRluc-P373S by single cycle assay; assay type: functional
[29] = tested on: Human immunodeficiency virus 1; assay: In vitro antiviral activity against fully replicating wild type HIV1 harboring NLRepRluc-P373S by multicycle assay; assay type: functional, organism-based
[30] = target: Human immunodeficiency virus type 1 Gag protein (Human immunodeficiency virus 1) (UniProt Q77YG1); assay: Binding affinity to HIV1 wild type Gag mutant assessed as dissociation half life by virus-like particle (VLP) assay
[31] = Aqueous solubility of compound; assay type: physicochemical; conditions: buffer
[32] = Metabolic stability in rat liver microsomes assessed as half life; assay type: ADME, Microsome
[33] = Oral bioavailability in rat at 5 mg/kg; assay type: ADME, organism-based; conditions: in vivo
[34] = tested on: Human immunodeficiency virus 1; assay: In vitro antiviral activity against HIV1 subtype A clinical isolate UG275; assay type: functional, organism-based; conditions: Human immunodeficiency virus 1, UG275
[35] = tested on: Human immunodeficiency virus 1; assay: In vitro antiviral activity against fully replicating wild type HIV1 NL4-3 in presence of human serum; assay type: functional, organism-based; conditions: Human immunodeficiency virus 1, NL4-3
[36] = AUC (infinity) in Cynomolgus monkey at 2 mg/kg, iv; assay type: ADME, organism-based, Macaca fascicularis; conditions: in vivo
Cytochrome P450 2C8 = target: T1, Cytochrome P450 2C8 (Homo sapiens, UniProt P10632); assay: Inhibition of CYP2C8 (unknown origin); assay type: ADME
T1 sequence (P10632 whole entry): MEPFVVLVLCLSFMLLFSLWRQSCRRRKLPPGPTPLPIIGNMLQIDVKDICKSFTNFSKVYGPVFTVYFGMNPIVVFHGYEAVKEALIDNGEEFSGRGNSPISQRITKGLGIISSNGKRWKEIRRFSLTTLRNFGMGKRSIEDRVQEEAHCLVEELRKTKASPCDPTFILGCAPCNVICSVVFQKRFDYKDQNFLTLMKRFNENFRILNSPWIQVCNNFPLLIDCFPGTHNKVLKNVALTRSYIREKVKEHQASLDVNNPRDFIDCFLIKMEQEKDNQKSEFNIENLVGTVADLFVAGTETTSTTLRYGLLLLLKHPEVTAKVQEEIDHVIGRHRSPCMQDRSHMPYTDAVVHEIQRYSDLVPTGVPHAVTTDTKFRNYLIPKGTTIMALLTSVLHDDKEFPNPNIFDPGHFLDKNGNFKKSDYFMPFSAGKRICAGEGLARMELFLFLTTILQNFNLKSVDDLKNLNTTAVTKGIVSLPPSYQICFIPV

Chain of Cytochrome P450 2C19 (P33261 whole entry): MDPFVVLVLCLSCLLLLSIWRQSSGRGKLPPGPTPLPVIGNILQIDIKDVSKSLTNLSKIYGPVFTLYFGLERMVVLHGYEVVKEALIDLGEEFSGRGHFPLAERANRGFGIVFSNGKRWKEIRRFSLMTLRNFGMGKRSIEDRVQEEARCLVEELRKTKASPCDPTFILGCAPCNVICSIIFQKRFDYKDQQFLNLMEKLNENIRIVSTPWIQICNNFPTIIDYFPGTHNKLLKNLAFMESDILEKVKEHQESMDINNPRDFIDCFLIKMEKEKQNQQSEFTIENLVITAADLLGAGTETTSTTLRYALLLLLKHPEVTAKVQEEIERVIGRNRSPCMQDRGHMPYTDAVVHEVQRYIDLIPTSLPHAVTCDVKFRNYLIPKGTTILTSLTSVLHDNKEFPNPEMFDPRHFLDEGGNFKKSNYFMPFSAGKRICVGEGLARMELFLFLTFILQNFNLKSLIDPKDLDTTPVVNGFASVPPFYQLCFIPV

C=C(C)[C@@H]1CC[C@]2(NCCN3CCS(=O)(=O)CC3)CC[C@]3(C)[C@H](CC[C@@H]4[C@@]5(C)CC=C(C6=CC[C@](COc7ncccc7C#N)(C(=O)O)CC6)C(C)(C)[C@@H]5CC[C@]43C)[C@@H]12
EC50 [1]: 5 nM | Ratio EC50 [2]: 2.5 | Ratio EC50 [3]: 4.8 | Ratio EC50 [4]: 2.5 | bioavailability [5]: 43.5% | half-life [6]: 8.6 h | Ratio EC50 [7]: 2.3 | AUC(0-inf) [8]: 99.8 µM·h | Vd [9]: 0.43 L/kg | half-life [10]: 0.2 h | Imax [11]: 99% | Imax [12]: 95.2% | Ratio EC50 [13]: 6.4 | Imax [14]: 92.2% | Ratio EC50 [15]: 1 | IC50 (Cytochrome P450 2C19): > 4400 nM | EC50 [16]: 6 nM | Imax [17]: 97.6% | AUC(0-inf) [18]: 32.2 µM·h | EC50 [19]: 5 nM | Imax [20]: 94% | clearance [21]: 0.32 mL/min/kg | half-life [22]: 14.5 h | Ratio EC50 [23]: 1.2 | EC50 [24]: 4 nM | EC50 [25]: 5 nM | Vd [26]: 0.3 L/kg | EC50 [27]: 32 nM | Ratio EC50 [28]: 2.4 | EC50 [29]: 2 nM | T1/2 [30]: 68.8 h | solubility [31]: < 1000 µg/mL | half-life [32]: > 2 h | bioavailability [33]: 45.1% | EC50 [34]: 2 nM | EC50 [35]: 26 nM | AUC(0-inf) [36]: 65.5 µM·h | IC50 (Cytochrome P450 2C8): > 4400 nM

From ChEMBL document CHEMBL6071211, “Invention of VH-937, a Potent HIV-1 Maturation Inhibitor with the Potential for Infrequent Oral Dosing in Humans” (ACS Med Chem Lett, 2024)
